{"source": "patent US10512700B2", "about": "“Radiohalide-labeled targeted diagnostics and therapeutics” (Memorial Sloan Kettering Cancer Center, priority 2014, dated 2019)", "key": {"V79 cells": {"tested_on": "V79 cells", "details": "DNA-incorporated; cited from earlier work"}, "[1]": {"tested_on": "mice bearing orthotopic U251 MG", "assay": "PET/CT imaging using C-2f", "assay_type": "in vivo, mouse", "method": "Mice bearing orthotopic U251 MG (n=8) were divided in two groups (unblocked and blocked) and administered with C-2f (150 μCi, 45 mCi/μmol in 300 μL 10% EtOH in 0.9% sterile saline) via tail vein injection. […] Approximately 5 min prior to PET acquisition, mice were anesthetized by inhalation of a mixture of isoflurane (Baxter Healthcare, Deerfield, Ill., USA; 2% isoflurane, 2 L/min medical air) and positioned on the scanner bed. Anesthesia was maintained using a 1% isoflurane/O2 mixture. PET data for each mouse was recorded using static scans of 10 minutes and acquired at 30 and 120 minutes post injection. Quantification (see FIG. 8) and % ID/g values were calculated by manually drawing regions of interests in three different frames and determining the average values using ASI Pro VM™ MicroPET Analysis software (Siemens Medical Solutions, Knoxville, Tex.)."}, "[2]": {"tested_on": "orthotopic U251 MG tumor bearing mice", "assay": "Autoradiography using C-2f", "assay_type": "in vivo, mouse", "method": "One day after PET/CT imaging, the same orthotopic U251 MG tumor bearing mice of Example 4.1.3 were administered with C-2f (80 μCi, 45 mCi/μmol in 300 μL 10% EtOH in 0.9% sterile saline) via tail vein injection. […] The mice were sacrificed after 2 hours and brain and muscle tissues harvested. The collected organs were fixed in Tissue-Tek O.C.T. compound (Sakura Finetek, Torrance, Calif.) and flash-frozen in liquid nitrogen and cut into 20 μm sections using a Vibratome Ultra Pro 5000 Cryostat (Vibratome, St. Louis, Mo.). A storage phosphor autoradiography plate (Fujifilm, BAS-MS2325, Fuji Photo Film, Japan) was exposed to the tissue slices overnight at −20° C. and read the following day (images not shown). Relative count intensity of the sections in each image was quantified using ImageJ 1.47 u processing software (see FIGS. 6A and 6B). Tumor/muscle and brain/muscle ratios were calculated using Prism 6.0c (GraphPad Software, La Jolla, Calif.). The same sections were subsequently subjected to H&E staining (hematoxylin-eosin) for morphological evaluation of tissue pathology and to compare the localization of the radiotracer with the location of tumor tissue (images not shown)."}, "Blood half-life": {"assay": "Blood half-life", "assay_type": "in vivo, mouse", "details": "athymic nude mice, tail vein injection", "method": "The blood half-life was determined by measuring the activity in serial blood samplings. […] Measurements in counts per minute were calculated as the mean % ID/g. The blood half-life was calculated using Prism 6.0c (GraphPad Software, La Jolla, Calif.).\nThe blood half-life was calculated by measuring the activity of blood samples collected at different time points p.i. […] The collected blood was weighed and counted in a WIZARD^2 automatic γ-counter (PerkinElmer, Boston, Mass.). The blood half-life was calculated using Prism 6.0c (GraphPad Software, La Jolla, Calif.) using a two-phase decay least squares fitting method and expressed as % ID/g."}, "[3]": {"assay": "Stability in whole blood (in vitro)", "assay_type": "in vitro ADME", "details": "whole human blood, 37° C., 15 to 240 minutes", "method": "C-2f was then extracted with 750 μL of MeCN, then centrifuged (5 minutes at 5000 rpm) to pellet blood cells and proteins. The supernatant was collected and prepared for HPLC injection by adding 750 μL mQ H2O and filtering. The blood stability was measured by HPLC analysis (Method A)."}, "[4]": {"tested_on": "U251 MG tumor bearing mice", "assay": "Biodistribution", "assay_type": "in vivo, mouse", "details": "C-2f, i.v., 120 min post injection, unblocked", "method": "Biodistribution studies were conducted on female nude mice (8-10 weeks old and 20-25 g in weight, n=21) bearing U251 MG subcutaneous xenografts. The radiolabeled preparation (20-30 μCi of compound C-2d (^131I) in 200 μL of a solution 90% PBS 10% PEG300) was administrated via the lateral tail vein. The compound was allowed to circulate for 2 h post injection at which time mice were sacrificed and organs were harvested (n=3). The radioactive content in tissue of interest (blood, tumor, muscle, bone, liver, spleen, kidney, heart, lung, pancreas, brain, skin, small intestine, large intestine, stomach, tail, thyroid and feces) was measured on a Wizard 2470 Automatic Gamma Counter, and the tissue-associated activity was calculated as the mean % ID/g using the following formula: [(activity in the target organ/grams of tissue)/injected dose]×100%.\nBiodistribution studies were performed in subcutaneous U251 MG xenograft bearing athymic nude mice (n=12). Mice were divided in two groups (blocked and unblocked) and administered with C-2f (approximately 50 μCi, 45 mCi/μmol in […], 10% EtOH in 0.9% sterile saline) via tail vein injection. […] Mice were sacrificed by CO2 asphyxiation at 120 min post injection and major organs were collected, weighed, and counted in a WIZARD^2 automatic γ-counter (PerkinElmer, Boston, Mass.). The radiopharmaceutical uptake was expressed as a percentage of injected dose per gram (% ID/g) using the following formula: [(activity in the target organ/grams of tissue)/injected dose]×100%."}, "[5]": {"assay": "half-life of PARP1i-FL (T. Reiner et al., unpublished)", "details": "in vivo"}, "[6]": {"details": "cited from earlier work"}}, "note": "Marks after values point to notes of the source that are not given here.", "data": [{"smiles": "O=c1[nH]c(=O)n([C@H]2C[C@H](O)[C@@H](CO)O2)cc1I", "note": "[^123I-IdUrd, 5-iodo-2′-deoxy uridine]", "values": [{"measurement": "RBE", "setting": "V79 cells", "value": "~7"}]}, {"smiles": "O=C(c1ccc([18F])cc1)N1CCN(C(=O)c2cc(Cc3n[nH]c(=O)c4ccccc34)ccc2F)CC1", "note": "[C-2f (^18F)]", "values": [{"measurement": "PET retained activity in tumor", "setting": "[1]; animals receiving only C-2f", "value": "2.15±0.79", "unit": "% ID/g"}, {"measurement": "PET retained activity in tumor", "setting": "[1]; animals that received both olaparib and C-2f", "value": "0.28±0.01", "unit": "% ID/g"}, {"measurement": "PET retained activity, C-2f only vs olaparib and C-2f", "setting": "[1]; mouse, in vivo", "value": "eight-fold higher"}, {"measurement": "autoradiography, retention in orthotopic tumor", "setting": "[2]; C-2f only, 2 hours", "value": "46.66±14.94", "unit": "AU"}, {"measurement": "autoradiography, retention in surrounding brain", "setting": "[2]; C-2f only, 2 hours", "value": "0.06±0.02", "unit": "AU"}, {"measurement": "autoradiography, muscle tissue", "setting": "[2]; healthy mice", "value": "1.50±0.31", "unit": "AU"}, {"measurement": "reduction of C-2f by preinjection of olaparib", "setting": "[2]; orthotopic tumor", "value": 99, "unit": "%"}, {"measurement": "autoradiography, retention in orthotopic tumor", "setting": "[2]; preinjection of olaparib", "value": "0.44±0.41", "unit": "AU"}, {"measurement": "autoradiography, retention in surrounding brain", "setting": "[2]; preinjection of olaparib", "value": "0.03±0.01", "unit": "AU"}, {"measurement": "autoradiography, muscle tissue", "setting": "[2]; tumor-bearing mice", "value": "1.36±0.21", "unit": "AU"}, {"measurement": "alpha blood half-life", "setting": "Blood half-life", "value": 1.27, "unit": "min"}, {"measurement": "beta blood half-life", "setting": "Blood half-life", "value": 31.14, "unit": "min"}, {"measurement": "beta blood half-life, share of phase", "setting": "Blood half-life", "value": 14.49, "unit": "%"}, {"measurement": "weighted blood half-life", "setting": "Blood half-life; 50 μCi", "value": 5.6, "unit": "min"}, {"measurement": "in vitro blood stability", "setting": "[3]", "value": "excellent stability"}, {"measurement": "in vitro blood stability", "setting": "[3]; listed as C-2f", "value": "no radioactive metabolites were observed"}, {"measurement": "% ID/g, Brain", "setting": "[4]", "value": "0.04±0.01", "unit": "% ID/g"}, {"measurement": "% ID/g, Muscle", "setting": "[4]", "value": "0.37±0.09", "unit": "% ID/g"}, {"measurement": "% ID/g, Tumor", "setting": "[4]", "value": "1.82±0.21", "unit": "% ID/g"}]}, {"smiles": "Cc1cc(C)n2c1C=C1C=CC(CCC(=O)N3CCN(C(=O)c4cc(Cc5n[nH]c(=O)c6ccccc56)ccc4F)CC3)=[N+]1[B-]2(F)F", "note": "[PARP1i-FL]", "values": [{"measurement": "tα1/2", "setting": "[5]", "value": 1.2, "unit": "min"}, {"measurement": "tα1/2, share of phase", "setting": "[5]", "value": 73.2, "unit": "%"}, {"measurement": "tβ1/2", "setting": "[5]", "value": 88.2, "unit": "min"}, {"measurement": "tβ1/2, share of phase", "setting": "[5]", "value": 26.8, "unit": "%"}, {"measurement": "weighted t1/2", "setting": "[5]", "value": 24.5, "unit": "min^c"}, {"measurement": "plasma free fraction", "setting": "[6]", "value": 0.7, "unit": "%^b"}]}, {"smiles": "O=c1[nH]c(=O)n([C@H]2C[C@H](O)[C@@H](CO)O2)cc1I", "note": "[^125I-IdUrd, 5-iodo-2′-deoxy uridine]", "values": [{"measurement": "RBE", "setting": "V79 cells", "value": "about 8"}]}]}
